# Literature values in patent US10399920B2, “Crystalline form of cannabidiol” (S&B Pharma, Inc., priority 2016, dated 2019).
# Tested on: epilepsy
# Settings: animal studies; dosed at 50 and 100 mg/kg intra-peritoneally; Cannabidiol prepared by non-synthetic methods
smiles,measurement,value
C=C(C)[C@@H]1CCC(C)=C[C@H]1c1c(O)cc(CCCCC)cc1O [Cannabidiol],reducing mortality,effective in reducing mortality
